Assay results published in ChEMBL document CHEMBL1909046, “DrugMatrix in vitro pharmacology data”.

Legend:
[1] = target: T1, Alpha-2C adrenergic receptor (Homo sapiens, UniProt P18825); test: DRUGMATRIX: Adrenergic Alpha-2C radioligand binding (ligand: [3H] MK-912); format: cell membranes, Sf9, Membrane; conditions: sf9
T1 sequence (P18825 whole entry): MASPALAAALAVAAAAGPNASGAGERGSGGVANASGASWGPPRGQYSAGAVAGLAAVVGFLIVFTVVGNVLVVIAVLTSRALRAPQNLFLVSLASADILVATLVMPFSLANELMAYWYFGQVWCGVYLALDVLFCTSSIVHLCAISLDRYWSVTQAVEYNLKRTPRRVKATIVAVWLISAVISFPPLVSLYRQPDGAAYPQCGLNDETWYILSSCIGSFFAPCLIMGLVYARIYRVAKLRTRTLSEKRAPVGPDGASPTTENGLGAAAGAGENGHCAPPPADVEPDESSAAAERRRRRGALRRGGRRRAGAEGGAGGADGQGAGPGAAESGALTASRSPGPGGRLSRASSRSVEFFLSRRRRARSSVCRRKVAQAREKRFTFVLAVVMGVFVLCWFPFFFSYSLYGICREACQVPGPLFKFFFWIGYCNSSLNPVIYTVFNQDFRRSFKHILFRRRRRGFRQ

Substance-P receptor = Substance-P receptor (Homo sapiens, UniProt P25103); format: cell membranes, Membrane; conditions: cho; note: in other assays of this panel Not Active means under 50% inhibition at 10 µM
Thromboxane-A synthase = target: T2, Thromboxane-A synthase (Homo sapiens, UniProt P24557); test: biochemical; format: tissue-based, Platelet; conditions: platelet;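 note: enzyme inhibition assay with PGH2 supplied as substrate; in other assays of this panel Not Active means under 50% inhibition at 10 µM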
T2 sequence (P24557 whole entry): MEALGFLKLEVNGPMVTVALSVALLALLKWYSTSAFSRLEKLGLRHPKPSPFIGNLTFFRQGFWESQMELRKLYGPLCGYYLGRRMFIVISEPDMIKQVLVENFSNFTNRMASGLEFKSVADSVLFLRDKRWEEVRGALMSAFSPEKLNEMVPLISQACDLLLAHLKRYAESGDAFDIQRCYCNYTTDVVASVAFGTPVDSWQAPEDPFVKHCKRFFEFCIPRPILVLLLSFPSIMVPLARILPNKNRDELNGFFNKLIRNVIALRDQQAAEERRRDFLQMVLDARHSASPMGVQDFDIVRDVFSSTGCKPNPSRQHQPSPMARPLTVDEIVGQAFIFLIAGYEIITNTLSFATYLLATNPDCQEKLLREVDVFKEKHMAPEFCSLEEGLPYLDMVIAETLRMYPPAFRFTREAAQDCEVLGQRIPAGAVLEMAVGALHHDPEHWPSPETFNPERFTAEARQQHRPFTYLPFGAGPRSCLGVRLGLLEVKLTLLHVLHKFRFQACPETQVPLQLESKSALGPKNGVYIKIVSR

[2] = DRUGMATRIX: Phosphodiesterase PDE4 enzyme inhibition (substrate: [3H]cAMP + cAMP); conditions: u-937; Not Active = under 50% inhibition at 10 µM
Cathepsin G = target: T3, Cathepsin G (Homo sapiens, UniProt P08311); format: tissue-based; conditions: neutrophil;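 note: inhibition of Cathepsin G enzyme activity, tested on an AMC-conjugated peptide substrate; in other assays of this panel Not Active means under 50% inhibition at 10 µM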
T3 sequence (P08311 whole entry): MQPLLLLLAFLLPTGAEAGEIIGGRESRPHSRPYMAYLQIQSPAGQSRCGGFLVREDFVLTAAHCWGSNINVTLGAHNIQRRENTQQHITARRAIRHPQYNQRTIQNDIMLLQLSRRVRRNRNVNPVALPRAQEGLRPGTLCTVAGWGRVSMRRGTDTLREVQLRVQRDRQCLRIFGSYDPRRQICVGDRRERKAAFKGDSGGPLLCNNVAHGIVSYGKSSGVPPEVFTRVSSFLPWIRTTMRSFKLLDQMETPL

Neutrophil elastase = target: T4, Neutrophil elastase (Homo sapiens, UniProt P08246); format: tissue-based;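 note: inhibition of neutrophil elastase enzyme activity, measured with a p-nitroanilide-linked peptide substrate; in other assays of this panel Not Active means under 50% inhibition at 10 µM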
T4 sequence (P08246 whole entry): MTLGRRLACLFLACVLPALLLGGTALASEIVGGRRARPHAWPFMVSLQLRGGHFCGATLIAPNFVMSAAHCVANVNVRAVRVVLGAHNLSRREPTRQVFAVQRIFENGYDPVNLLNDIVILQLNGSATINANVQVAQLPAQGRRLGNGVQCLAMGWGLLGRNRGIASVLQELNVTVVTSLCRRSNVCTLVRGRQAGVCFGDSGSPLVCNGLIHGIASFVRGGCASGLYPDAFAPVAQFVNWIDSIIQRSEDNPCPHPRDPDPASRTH

Cytochrome P450 2E1 = Cytochrome P450 2E1 (Homo sapiens, UniProt P05181); conditions: bti-tn-5b1-4; note: in other assays of this panel Not Active means under 50% inhibition at 10 µM
Cytochrome P450 2E1, sequence (P05181 whole entry): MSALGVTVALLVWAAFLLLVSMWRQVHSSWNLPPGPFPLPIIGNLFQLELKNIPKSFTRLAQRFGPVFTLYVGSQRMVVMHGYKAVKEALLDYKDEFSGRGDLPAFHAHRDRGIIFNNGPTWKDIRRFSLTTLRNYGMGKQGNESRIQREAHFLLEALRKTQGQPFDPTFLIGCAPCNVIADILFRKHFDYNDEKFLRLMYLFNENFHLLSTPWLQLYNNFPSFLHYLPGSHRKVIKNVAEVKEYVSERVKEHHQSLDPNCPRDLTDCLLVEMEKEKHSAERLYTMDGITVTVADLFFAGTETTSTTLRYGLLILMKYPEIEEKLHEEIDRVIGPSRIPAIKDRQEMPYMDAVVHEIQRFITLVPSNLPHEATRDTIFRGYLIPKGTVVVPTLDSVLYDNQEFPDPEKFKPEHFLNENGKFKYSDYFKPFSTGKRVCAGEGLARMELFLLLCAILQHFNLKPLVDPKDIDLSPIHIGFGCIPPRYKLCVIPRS

Substance-P receptor, sequence (P25103 whole entry): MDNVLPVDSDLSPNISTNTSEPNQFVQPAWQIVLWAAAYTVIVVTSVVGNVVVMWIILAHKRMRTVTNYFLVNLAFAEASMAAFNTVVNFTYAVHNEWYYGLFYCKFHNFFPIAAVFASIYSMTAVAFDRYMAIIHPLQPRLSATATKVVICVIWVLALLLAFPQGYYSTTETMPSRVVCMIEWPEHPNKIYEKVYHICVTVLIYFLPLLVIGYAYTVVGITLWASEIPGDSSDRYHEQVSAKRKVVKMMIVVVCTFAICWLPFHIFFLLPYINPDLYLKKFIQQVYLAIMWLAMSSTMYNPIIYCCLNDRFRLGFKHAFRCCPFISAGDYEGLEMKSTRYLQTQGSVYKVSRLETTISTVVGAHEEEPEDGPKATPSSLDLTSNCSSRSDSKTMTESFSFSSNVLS

C=C(CC)C(=O)c1ccc(OCC(=O)O)c(Cl)c1Cl [ETHACRYNIC ACID]
Not Active: IC50 [1] | IC50 (Substance-P receptor) | IC50 (Thromboxane-A synthase) | IC50 [2] | Ki [2] | IC50 (Cathepsin G) | IC50 (Neutrophil elastase) | IC50 (Cytochrome P450 2E1) | Ki (Cytochrome P450 2E1)

CC(C(=O)O)c1ccc(-c2ccccc2)c(F)c1 (centres undefined) [FLURBIPROFEN]
Not Active: IC50 [1] | IC50 (Substance-P receptor) | IC50 (Thromboxane-A synthase) | IC50 [2] | Ki [2] | IC50 (Cathepsin G) | IC50 (Neutrophil elastase) | IC50 (Cytochrome P450 2E1) | Ki (Cytochrome P450 2E1)

COc1ccccc1OCC(O)COC(N)=O (centres undefined) [METHOCARBAMOL]
Not Active: IC50 [1] | IC50 (Substance-P receptor) | IC50 (Thromboxane-A synthase) | IC50 [2] | Ki [2] | IC50 (Cathepsin G) | IC50 (Neutrophil elastase) | IC50 (Cytochrome P450 2E1) | Ki (Cytochrome P450 2E1)

CC(C(=O)O)c1ccc(CC2CCCC2=O)cc1 (centres undefined) [LOXOPROFEN]
Not Active: IC50 [1] | IC50 (Substance-P receptor) | IC50 (Thromboxane-A synthase) | IC50 [2] | Ki [2] | IC50 (Cathepsin G) | IC50 (Neutrophil elastase) | IC50 (Cytochrome P450 2E1) | Ki (Cytochrome P450 2E1)

COc1ccccc1OCC(O)CO (centres undefined) [GUAIFENESIN]
Not Active: IC50 [1] | IC50 (Substance-P receptor) | IC50 (Thromboxane-A synthase) | IC50 [2] | Ki [2] | IC50 (Cathepsin G) | IC50 (Neutrophil elastase)

Cc1cn[nH]c1 [FOMEPIZOLE]
Not Active: IC50 [1] | IC50 (Substance-P receptor) | IC50 (Thromboxane-A synthase) | IC50 [2] | Ki [2] | IC50 (Cathepsin G) | IC50 (Neutrophil elastase)

CN1C[C@H](C(=O)N[C@]2(C)O[C@@]3(O)[C@@H]4CCCN4C(=O)[C@H](Cc4ccccc4)N3C2=O)C[C@@H]2c3cccc4[nH]cc(c34)C[C@H]21 [DIHYDROERGOTAMINE]
Not Active: IC50 (Substance-P receptor) | IC50 (Thromboxane-A synthase) | IC50 [2] | Ki [2] | IC50 (Cathepsin G) | IC50 (Neutrophil elastase) | IC50 (Cytochrome P450 2E1) | Ki (Cytochrome P450 2E1)

CCC[C@@H]1C[C@@H](C(=O)N[C@@H]([C@H]2O[C@H](SC)[C@H](O)[C@@H](O)[C@H]2O)[C@H](C)Cl)N(C)C1 [CLINDAMYCIN]
Not Active: IC50 [1] | IC50 (Substance-P receptor) | IC50 (Thromboxane-A synthase) | IC50 [2] | Ki [2] | IC50 (Cathepsin G) | IC50 (Neutrophil elastase)

C/C=C\c1ccc(O)c(OC)c1 [ISOEUGENOL]
Not Active: IC50 [1] | IC50 (Substance-P receptor) | IC50 (Thromboxane-A synthase) | IC50 [2] | Ki [2] | IC50 (Cathepsin G) | IC50 (Neutrophil elastase)

Cc1cnc(C(=O)NCCc2ccc(S(=O)(=O)NC(=O)NC3CCCCC3)cc2)cn1 [GLIPIZIDE]
Not Active: IC50 [1] | IC50 (Substance-P receptor) | IC50 (Thromboxane-A synthase) | IC50 [2] | Ki [2] | IC50 (Cathepsin G) | IC50 (Neutrophil elastase)

N[C@@H](Cc1ccc(F)cc1)C(=O)O
Not Active: IC50 [1] | IC50 (Substance-P receptor) | IC50 (Thromboxane-A synthase) | IC50 [2] | Ki [2] | IC50 (Cathepsin G) | IC50 (Neutrophil elastase)

N=C(N)N/N=C/c1c(Cl)cccc1Cl [GUANABENZ]
Not Active: IC50 (Substance-P receptor) | IC50 (Thromboxane-A synthase) | IC50 [2] | Ki [2] | IC50 (Cathepsin G) | IC50 (Neutrophil elastase) | IC50 (Cytochrome P450 2E1) | Ki (Cytochrome P450 2E1)

CC(C)C[C@H]1C(=O)N2CCC[C@H]2[C@]2(O)O[C@](NC(=O)[C@@H]3C=C4c5cccc6[nH]c(Br)c(c56)C[C@H]4N(C)C3)(C(C)C)C(=O)N12 [BROMOCRIPTINE]
Not Active: IC50 (Substance-P receptor) | IC50 (Thromboxane-A synthase) | IC50 [2] | Ki [2] | IC50 (Cathepsin G) | IC50 (Neutrophil elastase) | IC50 (Cytochrome P450 2E1) | Ki (Cytochrome P450 2E1)

C[C@@H]1CC[C@H]2[C@@H](C)C(=O)O[C@@H]3O[C@@]4(C)CC[C@@H]1[C@]32OO4 [ARTEMISININ]
Not Active: IC50 [1] | IC50 (Substance-P receptor) | IC50 (Thromboxane-A synthase) | IC50 [2] | Ki [2] | IC50 (Cathepsin G) | IC50 (Neutrophil elastase)
